Test results reported in ChEMBL document CHEMBL4184210, “Optimization of novel monobactams with activity against carbapenem-resistant Enterobacteriaceae - Identification of LYS228” (Bioorg Med Chem Lett, 2018).
In brackets after ≈: the same amount, converted by molar mass.

Experiments:
[1] = system: Escherichia coli; assay: microbe, parasite or virus in culture
Description: Antimicrobial activity against Escherichia coli expressing beta-lactamase CTXM-15 by CLSI broth microdilution method

[2] = system: Escherichia coli; assay: Antimicrobial activity against Escherichia coli expressing beta-lactamase KPC-2 by CLSI broth microdilution method; format: functional
[3] = system: Escherichia coli; assay: microbe, parasite or virus in culture; remark: listed apart in the source
Description: Antimicrobial activity against Escherichia coli expressing beta-lactamase SHV-12 by CLSI broth microdilution method

[4] = system: Escherichia coli; assay: microbe, parasite or virus in culture; remark: listed apart in the source
Description: Antimicrobial activity against Escherichia coli expressing beta-lactamase AmpC by CLSI broth microdilution method

[5] = system: Escherichia coli; assay: microbe, parasite or virus in culture; remark: listed apart in the source
Description: Antimicrobial activity against Escherichia coli expressing beta-lactamase TEM-10 by CLSI broth microdilution method

[6] = system: Escherichia coli; assay: microbe, parasite or virus in culture; remark: listed apart in the source
Description: Antimicrobial activity against Escherichia coli expressing beta-lactamase CMY-2 by CLSI broth microdilution method

[7] = system: Escherichia coli; assay: microbe, parasite or virus in culture; remark: listed apart in the source
Description: Antimicrobial activity against wild type Escherichia coli by CLSI broth microdilution method

[8] = Chemical stability in pH 7.4 potassium phosphate buffer assessed as half life for compound hydrolysis at 37 degC by UPLC and mass spectrometry; format: physicochemical
[9] = system: Escherichia coli; assay: Antimicrobial activity against Escherichia coli expressing beta-lactamase NDM-1 by CLSI broth microdilution method; format: functional

Row | Structure (SMILES) | MIC [1] [µg/mL] | MIC [2] [µg/mL] | MIC [3] [µg/mL] | MIC [4] [µg/mL] | MIC [5] [µg/mL] | MIC [6] [µg/mL] | MIC [7] [µg/mL] | half-life [8] [h] | MIC [9] [µg/mL]
1 | C[C@@H](O/N=C(\C(=O)N[C@@H]1C(=O)N(S(=O)(=O)O)[C@@H]1Cn1cncn1)c1csc(N)n1)C(=O)O (stereo in doubt) | 0.5 (≈ 1.02 µM) | 1 (≈ 2.05 µM) | 2 (≈ 4.09 µM) | 4 (≈ 8.19 µM) | 1 (≈ 2.05 µM) | 16 (≈ 32.8 µM) | 1 (≈ 2.05 µM) |  | 
2 | Nc1nc(/C(=N/OCC(=O)O)C(=O)N[C@@H]2C(=O)N(S(=O)(=O)O)[C@@H]2Cn2cncn2)cs1 (stereo in doubt) | 0.25 (≈ 0.527 µM) | 0.5 (≈ 1.05 µM) | 16 (≈ 33.7 µM) | 16 (≈ 33.7 µM) | 1 (≈ 2.11 µM) | 8 (≈ 16.9 µM) | 0.125 (≈ 0.263 µM) |  | 
3 | CC(C)(O/N=C(\C(=O)N[C@@H]1C(=O)N(S(=O)(=O)O)[C@@H]1Cn1cc(C(=O)O)nn1)c1csc(N)n1)C(=O)O (stereo in doubt) | 16 (≈ 29.3 µM) | 16 (≈ 29.3 µM) | 16 (≈ 29.3 µM) | 32 (≈ 58.6 µM) | 32 (≈ 58.6 µM) | 64 (≈ 117 µM) | 32 (≈ 58.6 µM) | > 37 | 
4 | Cc1nnn(C[C@@H]2[C@H](NC(=O)/C(=N\OC(C)(C)C(=O)O)c3csc(N)n3)C(=O)N2S(=O)(=O)O)n1 (stereo in doubt) | 1 (≈ 1.93 µM) | 8 (≈ 15.5 µM) | 8 (≈ 15.5 µM) | 8 (≈ 15.5 µM) | 8 (≈ 15.5 µM) |  | 2 (≈ 3.86 µM) |  | 2 (≈ 3.86 µM)
5 | CC(C)(O/N=C(\C(=O)N[C@@H]1C(=O)N(S(=O)(=O)O)[C@@H]1Cn1nccn1)c1csc(N)n1)C(=O)O (stereo in doubt) | 0.5 (≈ 0.995 µM) | 1 (≈ 1.99 µM) | 1 (≈ 1.99 µM) | 8 (≈ 15.9 µM) | 2 (≈ 3.98 µM) |  | 0.5 (≈ 0.995 µM) | 978 | 0.5 (≈ 0.995 µM)
6 | Cc1ncnn1C[C@@H]1[C@H](NC(=O)/C(=N\OC(C)(C)C(=O)O)c2csc(N)n2)C(=O)N1S(=O)(=O)O (stereo in doubt) | 4 (≈ 7.74 µM) | 2 (≈ 3.87 µM) | 4 (≈ 7.74 µM) | 8 (≈ 15.5 µM) | 8 (≈ 15.5 µM) | 8 (≈ 15.5 µM) | 4 (≈ 7.74 µM) | > 37 | 
7 | C[C@@H]1CN(C[C@@H]2[C@H](NC(=O)/C(=N\OC(C)(C)C(=O)O)c3csc(N)n3)C(=O)N2S(=O)(=O)O)C(=O)O1 (stereo in doubt) | 1 (≈ 1.87 µM) | 1 (≈ 1.87 µM) | 1 (≈ 1.87 µM) | 2 (≈ 3.74 µM) | 8 (≈ 15 µM) | 4 (≈ 7.48 µM) | 1 (≈ 1.87 µM) | > 37 | 
8 | CC(C)(O/N=C(\C(=O)N[C@@H]1C(=O)N(S(=O)(=O)O)[C@@H]1CN1C[C@H](CN)OC1=O)c1csc(N)n1)C(=O)O (stereo in doubt) | 1 (≈ 1.82 µM) | 1 (≈ 1.82 µM) | 1 (≈ 1.82 µM) | 1 (≈ 1.82 µM) | 8 (≈ 14.6 µM) | 2 (≈ 3.64 µM) | 1 (≈ 1.82 µM) | > 37 | 
9 | CC(C)(O/N=C(\C(=O)N[C@@H]1C(=O)N(S(=O)(=O)O)[C@@H]1CN1CCNC1=O)c1csc(N)n1)C(=O)O (stereo in doubt) | 1 (≈ 1.92 µM) | 1 (≈ 1.92 µM) | 1 (≈ 1.92 µM) | 2 (≈ 3.85 µM) | 4 (≈ 7.7 µM) |  | 0.5 (≈ 0.962 µM) | > 1000 | 1 (≈ 1.92 µM)
10 | Nc1nc(/C(=N/OC2(C(=O)O)CC2)C(=O)N[C@@H]2C(=O)N(S(=O)(=O)O)[C@@H]2Cn2cncn2)cs1 (stereo in doubt) | 0.125 (≈ 0.25 µM) | 0.25 (≈ 0.5 µM) | 1 (≈ 2 µM) | 1 (≈ 2 µM) | 0.5 (≈ 0.999 µM) | 1 (≈ 2 µM) | 0.125 (≈ 0.25 µM) |  | 
11 | CC(C)(O/N=C(\C(=O)N[C@@H]1C(=O)N(S(=O)(=O)O)[C@@H]1CN1C[C@H](CO)OC1=O)c1csc(N)n1)C(=O)O (stereo in doubt) | 1 (≈ 1.82 µM) | 4 (≈ 7.27 µM) | 2 (≈ 3.63 µM) | 2 (≈ 3.63 µM) | > 64 | 4 (≈ 7.27 µM) | 2 (≈ 3.63 µM) | > 37 | 
12 | CC(C)(O/N=C(\C(=O)N[C@@H]1C(=O)N(S(=O)(=O)O)[C@@H]1Cn1cnnc1)c1csc(N)n1)C(=O)O (stereo in doubt) | 1 (≈ 1.99 µM) | 16 (≈ 31.8 µM) | 16 (≈ 31.8 µM) | 2 (≈ 3.98 µM) | 32 (≈ 63.7 µM) |  | 1 (≈ 1.99 µM) | 113 | 1 (≈ 1.99 µM)
13 | CC(C)(O/N=C(\C(=O)N[C@@H]1C(=O)N(S(=O)(=O)O)[C@@H]1Cn1ncnc1CN)c1csc(N)n1)C(=O)O (stereo in doubt) | 2 (≈ 3.76 µM) | 4 (≈ 7.53 µM) | 4 (≈ 7.53 µM) | 8 (≈ 15.1 µM) | 4 (≈ 7.53 µM) | 8 (≈ 15.1 µM) | 2 (≈ 3.76 µM) | > 37 | 
14 | CC(C)(O/N=C(\C(=O)N[C@@H]1C(=O)N(S(=O)(=O)O)[C@@H]1CN1C[C@@H](CN)OC1=O)c1csc(N)n1)C(=O)O (stereo in doubt) | 0.5 (≈ 0.91 µM) | 1 (≈ 1.82 µM) | 0.5 (≈ 0.91 µM) | 1 (≈ 1.82 µM) | 2 (≈ 3.64 µM) | 1 (≈ 1.82 µM) | 0.5 (≈ 0.91 µM) | > 37 | 
15 | Nc1nc(/C(=N/OC2(C(=O)O)CCC2)C(=O)N[C@@H]2C(=O)N(S(=O)(=O)O)[C@@H]2Cn2cncn2)cs1 (stereo in doubt) | 0.5 (≈ 0.972 µM) | 1 (≈ 1.94 µM) | 1 (≈ 1.94 µM) | 2 (≈ 3.89 µM) | 4 (≈ 7.77 µM) | 4 (≈ 7.77 µM) | 1 (≈ 1.94 µM) |  | 
16 | CC(C)(O/N=C(\C(=O)N[C@@H]1C(=O)N(S(=O)(=O)O)[C@@H]1CN1C[C@H](CNC(=N)N)OC1=O)c1csc(N)n1)C(=O)O (stereo in doubt) | 8 (≈ 13.5 µM) | 16 (≈ 27 µM) | 16 (≈ 27 µM) | 16 (≈ 27 µM) | > 64 | 32 (≈ 54.1 µM) | 8 (≈ 13.5 µM) | > 37 | 
17 | CC(C)(O/N=C(\C(=O)N[C@@H]1C(=O)N(S(=O)(=O)O)[C@@H]1CN1CCCCC1=O)c1csc(N)n1)C(=O)O (stereo in doubt) | 8 (≈ 15 µM) | 8 (≈ 15 µM) | 4 (≈ 7.51 µM) | 16 (≈ 30 µM) | 4 (≈ 7.51 µM) |  | 4 (≈ 7.51 µM) | 214 | 8 (≈ 15 µM)
18 | CC(C)(O/N=C(\C(=O)N[C@@H]1C(=O)N(S(=O)(=O)O)[C@@H]1Cn1ccc(N)n1)c1csc(N)n1)C(=O)O (stereo in doubt) | > 64 | > 64 | > 64 | > 64 | > 64 |  | > 64 | 3.5 | > 64
19 | CC(C)(O/N=C(\C(=O)N[C@@H]1C(=O)N(S(=O)(=O)O)[C@@H]1Cn1cc(CCN)nn1)c1csc(N)n1)C(=O)O (stereo in doubt) | 1 (≈ 1.83 µM) | 2 (≈ 3.67 µM) | 4 (≈ 7.33 µM) | 2 (≈ 3.67 µM) | 2 (≈ 3.67 µM) | 4 (≈ 7.33 µM) | 1 (≈ 1.83 µM) | > 37 | 
20 | CC(C)(O/N=C(\C(=O)N[C@@H]1C(=O)N(S(=O)(=O)O)[C@@H]1CN1C[C@@H](CO)OC1=O)c1csc(N)n1)C(=O)O (stereo in doubt) | 16 (≈ 29.1 µM) | 32 (≈ 58.1 µM) | 32 (≈ 58.1 µM) | 32 (≈ 58.1 µM) | 64 (≈ 116 µM) | 16 (≈ 29.1 µM) | 16 (≈ 29.1 µM) | > 37 | 
21 | C[C@H](O/N=C(\C(=O)N[C@@H]1C(=O)N(S(=O)(=O)O)[C@@H]1Cn1cncn1)c1csc(N)n1)C(=O)O (stereo in doubt) | 0.125 (≈ 0.256 µM) | 1 (≈ 2.05 µM) | 4 (≈ 8.19 µM) | 2 (≈ 4.09 µM) | 4 (≈ 8.19 µM) | 8 (≈ 16.4 µM) | 0.125 (≈ 0.256 µM) |  | 
22 | CC(C)(O/N=C(\C(=O)N[C@@H]1C(=O)N(S(=O)(=O)O)[C@@H]1Cn1ncnc1CNC(=N)N)c1csc(N)n1)C(=O)O (stereo in doubt) | 16 (≈ 27.9 µM) | 32 (≈ 55.8 µM) | 16 (≈ 27.9 µM) | 32 (≈ 55.8 µM) | 16 (≈ 27.9 µM) | 32 (≈ 55.8 µM) | 16 (≈ 27.9 µM) | > 37 | 
23 | C[C@@H](O)[C@H]1C(=O)N2C(C(=O)O)=C(SCCN=CN)C[C@H]12 [IMIPENEM ANHYDROUS] |  |  |  |  |  |  |  | 46 | 
24 | CC(C)(O/N=C(\C(=O)N[C@@H]1C(=O)N(S(=O)(=O)O)[C@@H]1Cn1cc(CN)nn1)c1csc(N)n1)C(=O)O (stereo in doubt) | 1 (≈ 1.88 µM) | 2 (≈ 3.76 µM) | 4 (≈ 7.53 µM) | 1 (≈ 1.88 µM) | 2 (≈ 3.76 µM) | 1 (≈ 1.88 µM) | 1 (≈ 1.88 µM) | > 37 | 
25 | CC(C)(O/N=C(\C(=O)N[C@@H]1C(=O)N(S(=O)(=O)O)[C@@H]1Cn1cc(CO)nn1)c1csc(N)n1)C(=O)O (stereo in doubt) | 1 (≈ 1.88 µM) | 4 (≈ 7.51 µM) | 16 (≈ 30 µM) | 4 (≈ 7.51 µM) | 8 (≈ 15 µM) | 4 (≈ 7.51 µM) | 0.5 (≈ 0.939 µM) | > 37 | 
26 | CC(C)(O/N=C(\C(=O)N[C@@H]1C(=O)N(S(=O)(=O)O)[C@@H]1CN1C[C@@H](CNC(=N)N)OC1=O)c1csc(N)n1)C(=O)O (stereo in doubt) | 0.125 (≈ 0.211 µM) | 1 (≈ 1.69 µM) | 0.25 (≈ 0.423 µM) | 0.25 (≈ 0.423 µM) | 2 (≈ 3.38 µM) | 0.25 (≈ 0.423 µM) | 0.25 (≈ 0.423 µM) | > 37 | 
27 | CN(C[C@@H]1[C@H](NC(=O)/C(=N\OC(C)(C)C(=O)O)c2csc(N)n2)C(=O)N1S(=O)(=O)O)C(=O)CN (stereo in doubt) | 4 (≈ 7.67 µM) | 8 (≈ 15.3 µM) | 4 (≈ 7.67 µM) | 16 (≈ 30.7 µM) |  |  | 4 (≈ 7.67 µM) | 212 | 4 (≈ 7.67 µM)
28 | CC(C)(O/N=C(\C(=O)N[C@@H]1C(=O)N(S(=O)(=O)O)[C@@H]1Cn1cc(NC(=O)C[N+](C)(C)C)nn1)c1csc(N)n1)C(=O)O | 2 | 2 | 8 | 2 | 8 | 8 | 1 | > 37 | 
29 | CC(C)(O/N=C(\C(=O)N[C@@H]1C(=O)N(S(=O)(=O)O)[C@@H]1Cn1cc(CNC(=N)N)nn1)c1csc(N)n1)C(=O)O (stereo in doubt) | 0.25 (≈ 0.436 µM) | 0.5 (≈ 0.872 µM) | 1 (≈ 1.74 µM) | 1 (≈ 1.74 µM) | 1 (≈ 1.74 µM) | 0.5 (≈ 0.872 µM) | 0.25 (≈ 0.436 µM) | > 37 | 
